One assay has as its system cutaneous tissue. Put plainly: Dermal application: cellularity and collagen deposition in cutaneous tissue (general statements). Format: in vivo. The following applies: general statement in the description.
For a further assay, the system named is skin of normal rats. Put plainly: Intradermal injection, cell migration / cellularity at the site of administration (histology). Type of assay: in vivo, female Fischer rats. The following applies: 50 microlitre intradermal, 48 hours; for cellularity at the site of injection: versus saline. As to the method:
The effects of intradermally injected glucose, maltose and maltopentaose on cell migration into the site of administration in the skin of normal rats. Healthy, specific pathogen free female Fischer rats 10-12 weeks of age (n=3) were anesthetised with ether and hair on their backs was clipped (electric miniclippers) from two areas of approximately 1.5 cm×4 cm either side of and paralleling the spinal column. The test and control substances were injected into the centre of 1 square cm defined areas. Substances were administered in such a fashion that each was injected into 4 different positions at least once in order to control for any possible anatomical positioning effect. Agents were dissolved in normal saline at a concentration of 100 mg/ml and sterile filtered prior to administration. Fifty microlitre injection volumes were given intradermally using 30 gauge needles and control injections consisted of 50 microlitres of sterile normal saline. Animals were sacrificed 48 hours following injection and injection sites were subjected to histological sectioning followed by microscopic examination.
The effects of intradermally injected dextran and maltopentaose on cell migration into the site of administration in the skin of normal rats. In a similar experiment to that outlined in Example 1 above, female Fischer rats, 10-12 weeks of age (n=3) were treated with 50 microlitre volumes of i) 50 mg/ml of clinical grade dextran (MW 71,400); ii) 50 mg/ml maltopentaose; or iii) normal saline using a 30 gauge needle. Skin injection sites were submitted for histological sectioning and examined microscopically 48 hours following injection.
The effects of intradermally injected maltotriose and maltopentaose on cell migration into the site of administration in the skin of normal rats. In a similar experiment to that outlined in Example 1 above, female Fischer rats, 10-12 weeks of age (n=2) were treated with 50 microlitre volumes of i) 100 mg/ml of maltotriose; ii) 100 mg/ml maltopentaose; or iii) normal saline using a 30 gauge needle. Skin injection sites were submitted for histological sectioning and examined microscopically 48 hours following injection.
The effects of intradermally injected maltopentaose and 1,4-beta-mannohexaose on cell migration into the site of administration in the skin of normal rats. In a similar experiment to that outlined in Example 1 above, female Fischer rats, 10-12 weeks of age (n=2) were treated with 50 microlitre volumes of i) 100 mg/ml of maltopentaose; ii) 100 mg/ml of 1,4-beta-mannohexaose; or iii) normal saline using a 30 gauge needle. Skin injection sites were submitted for histological sectioning and examined microscopically 48 hours following injection.
The effects of intradermally injected amylose and the O-phosphorylated mannan isolated from Pichia holstii on cell migration into the site of administration in the skin of normal rats. In a similar experiment to that outlined in Example 1 above, female Fischer rats, 10-12 weeks of age (n=2) were treated with 50 microlitre volumes of i) 50 mg/ml of amylose; ii) 50 mg/ml of the O-phosphorylated mannan from Pichia holstii; or iii) normal saline using a 30 gauge needle. Skin injection sites were submitted for histological sectioning and examined microscopically 48 hours following injection. […]

The subject of assay [1] is skin (dermis) fibroblasts. Put plainly: Intradermal injection into abdominal skin, cellularity, collagen (Gomori's stain) and fibroblasts (prolyl 4-hydroxylase immunohistochemistry). Format: in vivo, female Wistar rats. The following applies: Example 7, 50 mg/ml in sterile saline, 50 microliters intradermal; for dermal collagen (Gomori's staining) / fibroblast-like cells / cellular infiltrate in the dermis: 48 hours and 7 days; for fibroblast-like cells / cellular infiltrate in the dermis: H&E. How it is done: Following ether anaesthesia, hair was clipped from skin on both sides of the abdominal region of 8-10 week old female Wistar rats. Intradermal injections (via a 30 gauge needle) of either sterile saline (50 microliters), PM5 (50 microliters, 50 mg/ml in sterile saline) or amylopectin (50 microliters, 50 mg/ml in sterile saline) were placed in the centre of 1 cm^2 defined areas of abdominal skin. Forty-eight hours and 7 days after injection, groups of animals were euthanased by CO2 overdose and skin samples were examined following the preparation of 6 μm histological sections that were stained with H&E and Gomori's (collagen) stain. In addition, immunohistochemistry using a mouse anti-rat prolyl 4-hydroxylase monoclonal antibody (Chemicon International Inc) in paraffin embedded skin sections was used to identify fibroblasts within the dermis.

Where [2] appears, read: Example 1, 100 mg/ml in normal saline.

With maltohexaose, the “increase in cellularity and collagen deposition in cutaneous tissue / tissue remodelling effect” value in the assay with cutaneous tissue is “effective tissue remodelling agents and effective anti-wrinkle compounds”.

As for `OC[C@H]1O[C@H](O[C@H]2[C@H](O)[C@@H](O)C(O)O[C@@H]2CO)[C@H](O)[C@@H](O)[C@@H]1O` (mixture of isomers) [maltose, reference compound], the “cellularity at the site of injection” value in the assay on skin of normal rats (setting [2]) was “neither saline, glucose nor maltose had any effect on cellularity”.

Consider maltopentaose, for which the “cellularity at the site of injection” value in the assay on skin of normal rats (setting [2]) is “significant increase in cellularity (P=0.001) versus saline”; in the assay on skin of normal rats (Example 2, 50 mg/ml), “clear and significant difference in cellularity versus saline”; in the assay with skin of normal rats (Example 3, 100 mg/ml) it was “clear and significant difference in cellularity versus saline”; in the assay on skin of normal rats (Example 4, 100 mg/ml), “increases in cellularity”. Also, the “increase in cellularity and collagen deposition in cutaneous tissue / tissue remodelling effect” value in the assay with cutaneous tissue was “effective tissue remodelling agents and effective anti-wrinkle compounds”.

Regarding `OC[C@H]1O[C@@H](O[C@H]2[C@H](O)[C@H](O)[C@H](O[C@H]3[C@H](O)[C@H](O)[C@H](O[C@H]4[C@H](O)[C@H](O)[C@H](O[C@H]5[C@H](O)[C@H](O)[C@H](O[C@H]6[C@H](O)[C@H](O)C(O)O[C@@H]6CO)O[C@@H]5CO)O[C@@H]4CO)O[C@@H]3CO)O[C@@H]2CO)[C@@H](O)[C@@H](O)[C@@H]1O` (stereo partly drawn) [1,4-beta-mannohexaose], in the assay with skin of normal rats (Example 4, 100 mg/ml), the “cellularity, 1,4-beta-mannohexaose injection sites versus maltopentaose sites” value is recorded as “the results were not significantly different” and the “cellularity at the site of injection” value is on record as “increases in cellularity”. For the same molecule, the “increase in cellularity and collagen deposition in cutaneous tissue / tissue remodelling effect” value in the assay on cutaneous tissue is “effective tissue remodelling agents and effective anti-wrinkle compounds”.

As to dextran [reference compound], the “cellularity at the site of injection” value with skin of normal rats (Example 2, 50 mg/ml) is “increased cellularity was noticed in the dextran injection sites but this was not statistically significantly different from the saline injected sites”.

For the molecule maltotriose [reference compound], in the assay on skin of normal rats (Example 3, 100 mg/ml), the “cellularity at the site of injection” value is given as “no increase in cellularity”.

In the case of `O=P(O)(O)OC[C@H]1O[C@H](O[C@@H]2[C@H](O)[C@@H](O[C@@H]3[C@H](O)[C@@H](O[C@@H]4[C@H](O)[C@@H](O[C@H]5[C@@H](O)[C@H](O)[C@@H](CO)O[C@@H]5O)O[C@H](CO)[C@H]4O)O[C@H](CO)[C@H]3O)O[C@H](CO)[C@H]2O)[C@@H](O)[C@@H](O)[C@@H]1O` [PM5, 6-O-phospho-alpha-D-mannose-(1,3)-alpha-D-mannose-(1,3)-alpha-D-mannose-(1,3)-alpha-D-mannose-(1,2)-alpha-D-mannose], in assay [1], the “dermal collagen (Gomori's staining)” value is “collagen deposited in the lower dermal layers” and the “fibroblast-like cells / cellular infiltrate in the dermis” value is recorded as “increase in fibroblast-like cells”. Moreover, the “increase in cellularity and collagen deposition in cutaneous tissue / tissue remodelling effect” value with cutaneous tissue is “effective tissue remodelling agents and effective anti-wrinkle compounds”.

In the case of amylose, in the assay on skin of normal rats (Example 5, 50 mg/ml), the “cellularity at the site of injection” value is “increases in cellularity”.

For the molecule amylopectin, in assay [1], the “fibroblast numbers (immunohistochemical staining, anti-rat prolyl 4-hydroxylase)” value is “influx of fibroblastoid cells”; the “dermal collagen (Gomori's staining)” value was “increase in dermal collagen”; the “fibroblast-like cells / cellular infiltrate in the dermis” value was “marked “fibroblast-like” cellular infiltrate in both the upper and lower regions of the dermis”. In assay [1] (listed as Amylopectin), the “fibroblast numbers (immunohistochemical staining, anti-rat prolyl 4-hydroxylase)” value is “increase in dermal collagen (as indicated Gomori's staining) (FIG. 3), and fibroblast numbers”. Also, the “increase in cellularity and collagen deposition in cutaneous tissue / tissue remodelling effect” value in the assay with cutaneous tissue is reported as “particularly effective in this regard”.

As to `OC[C@H]1O[C@@H](O[C@H]2[C@H](O)[C@H](O)[C@H](O[C@H]3[C@H](O)[C@H](O)[C@H](O[C@H]4[C@H](O)[C@H](O)[C@H](O[C@H]5[C@H](O)[C@H](O)C(O)O[C@@H]5CO)O[C@@H]4CO)O[C@@H]3CO)O[C@@H]2CO)[C@@H](O)[C@@H](O)[C@@H]1O` (stereo partly drawn) [1,4-beta-D-mannopentaose], the “increase in cellularity and collagen deposition in cutaneous tissue / tissue remodelling effect” value in the assay on cutaneous tissue is “effective tissue remodelling agents and effective anti-wrinkle compounds”.

maltoheptaose: in the assay on cutaneous tissue, the “increase in cellularity and collagen deposition in cutaneous tissue / tissue remodelling effect” value was “effective tissue remodelling agents and effective anti-wrinkle compounds”.

Source of the values: patent US20050265944A1, “Carbohydrate-based anti-wrinkle and tissue remodelling compounds” (Ultraceuticals R&D Limited, priority 2002, published 2005).
